Converted amounts (≈) assume the structure as drawn.
Experiments:
[1] = Solubility; type: physicochemical; conditions: aqueous buffer; at pH 7.4
[2] = biological target: MetAP1 (Homo sapiens, UniProt P53582); assay: MetAP1 IC50; type: biochemical; conditions: second value of the cell; read-out: MetAP2/MetAP1 IC50 (nM): MetAP1
[3] = biological target: hERG (Homo sapiens, UniProt Q12809); assay: hERG IC50
[4] = test system: CYP (isoform not given); assay: CYP IC50, HLM; type: in vitro ADME; conditions: human, human liver microsomes
[5] = test system: NASH mice; assay: Non-alcoholic steatohepatitis (STZ + high fat diet) mouse model; type: in vivo; conditions: for Mean body weight at the day before sacrifice: 5 to 9 weeks of age, Vehicle 18.8±1.0 g; for Fibrosis area (Sirius red-positive area): Vehicle 1.07±0.18%; for Inflammation area (F4/80-positive area): Vehicle 3.57±0.88%; for Fat deposition area (oil red-positive area): Vehicle 23.57±6.52%; for Liver TG content: Vehicle 67.3±29.0; for Whole blood HbA1c levels: FIG. 9; for NAFLD Activity score (NAS): Vehicle 5.4±0.9
Description: NASH was induced in 48 male mice by a single subcutaneous injection of 200 μg streptozotocin (STZ; Sigma-Aldrich) in the back of mice 2 days after birth, and by feeding with high fat diet (HFD; 57 kcal % fat) after 4 weeks of age. At 5 weeks of age, the NASH mice were randomized into 6 groups of 8 mice based on body weight. Eight male littermates, fed with normal diet (without STZ treatment, were used for the Normal group. Vehicle, Compound A and Telmisartan were administered by the oral route in a volume of 10 mL/kg body weight.
Compound A was administered twice daily at doses of 1, 3 or 10 mg/kg body weight (i.e., 2, 6 or 20 mg/kg/day) and once daily at dose of 30 mg/kg body weight. Telmisartan was administered once daily at a dose of 10 mg/kg body weight.
C57BL/6 mice (15-day pregnant female) were obtained from Charles River Laboratories Japan (Japan). The animals were maintained in a SPF facility under controlled conditions of temperature (23±2° C.), humidity (45±10%), lighting (12-hour artificial light and dark cycles; light from 8:00 to 20:00) and air exchange. A high pressure (20±4 Pa) was maintained in the experimental room to prevent contamination of the facility.
Mice were fasted for 4 hours before blood was collected at the time of sacrifice. HbA1c levels were quantified in whole blood samples by DCA Vantage Analyzer (Siemens Healthcare Diagnostics, USA). For plasma biochemistry, blood was collected in polypropylene tubes with anticoagulant (Novo-Heparin;) and centrifuged at 1,000×g for 15 minutes at 4° C. The supernatant was collected and stored at −80° C. until use. Plasma levels of glucose, ALT, TG and total cholesterol were measured by FUJI DRI-CHEM 7000 (Fujifilm, Japan). Plasma insulin concentration was quantified by the Ultra Sensitive Mouse Insulin ELISA Kit.
Liver total lipid-extracts were obtained by Folch's method (Folch J. et al., J. Biol. Chem. 1957; 226: 497). Liver samples were homogenized in chloroform-methanol (2:1, v/v) and incubated overnight at room temperature. After washing with chloroform-methanol-water (8:4:3, v/v/v), the extracts were evaporated to dryness, and dissolved in isopropanol. Liver TG levels were measured by Triglyceride E-test (Wako Pure Chemical Industries). Extracts were diluted 2-fold in isopropanol when the TG content exceeded the detection limit.
For HE staining, sections were cut from paraffin blocks of liver tissue prefixed in Bouin's solution and stained with Lillie-Mayer's Hematoxylin (Muto Pure Chemicals, Japan) and eosin solution (Wako Pure Chemical Industries). NAFLD Activity score (NAS) was calculated according to the criteria of Kleiner (Kleiner D E et al., Hepatology, 2005; 41:1313). To visualize collagen deposition, Bouin's fixed liver sections were stained using picro-Sirius red solution (Waldeck, Germany). To visualize macro- and microvesicular fat, cryosections were cut from frozen liver tissues, prefixed in 10% neutral buffered formalin, embedded in Tissue-Tek O.C.T. compound (Sakura Finetek Japan, Japan), and stained with Oil Red O (Sigma-Aldrich). For immunohistochemistry, sections were cut from frozen liver tissues embedded in Tissue-Tek O.C.T. compound and fixed in acetone. Endogenous peroxidase activity was blocked using 0.03% H2O2 for 5 minutes, followed by incubation with Block Ace (Dainippon Sumitomo Pharma, Japan) for 10 minutes. The sections were incubated with a 200-fold dilution of anti-F4/80 antibody (BMA Biomedicals, Switzerland) over night at 4° C. After incubation with secondary antibody (HRP-Goat anti-rat antibody, Invitrogen, USA), enzyme-substrate reactions were performed using 3, 3′-diaminobenzidine/H2O2 solution (Nichirei, Japan). […]

[6] = Plasma protein binding, rat; type: in vitro ADME; conditions: read-out: Plasma protein binding (h/r/m, %): r (converted)
[7] = AMES
[8] = Plasma protein binding, mouse; type: in vitro ADME; conditions: read-out: Plasma protein binding (h/r/m, %): m
[9] = i.v. and p.o. exposure study, dog; type: in vivo; conditions: plasma
Description: (§1) Mouse, rat and dog studies were conducted to assess i.v. and p.o. (oral) exposure.

[10] = i.v. and p.o. exposure study, mouse; type: in vivo
Description: as §1

Chain of hERG (Q12809 whole entry, canonical isoform): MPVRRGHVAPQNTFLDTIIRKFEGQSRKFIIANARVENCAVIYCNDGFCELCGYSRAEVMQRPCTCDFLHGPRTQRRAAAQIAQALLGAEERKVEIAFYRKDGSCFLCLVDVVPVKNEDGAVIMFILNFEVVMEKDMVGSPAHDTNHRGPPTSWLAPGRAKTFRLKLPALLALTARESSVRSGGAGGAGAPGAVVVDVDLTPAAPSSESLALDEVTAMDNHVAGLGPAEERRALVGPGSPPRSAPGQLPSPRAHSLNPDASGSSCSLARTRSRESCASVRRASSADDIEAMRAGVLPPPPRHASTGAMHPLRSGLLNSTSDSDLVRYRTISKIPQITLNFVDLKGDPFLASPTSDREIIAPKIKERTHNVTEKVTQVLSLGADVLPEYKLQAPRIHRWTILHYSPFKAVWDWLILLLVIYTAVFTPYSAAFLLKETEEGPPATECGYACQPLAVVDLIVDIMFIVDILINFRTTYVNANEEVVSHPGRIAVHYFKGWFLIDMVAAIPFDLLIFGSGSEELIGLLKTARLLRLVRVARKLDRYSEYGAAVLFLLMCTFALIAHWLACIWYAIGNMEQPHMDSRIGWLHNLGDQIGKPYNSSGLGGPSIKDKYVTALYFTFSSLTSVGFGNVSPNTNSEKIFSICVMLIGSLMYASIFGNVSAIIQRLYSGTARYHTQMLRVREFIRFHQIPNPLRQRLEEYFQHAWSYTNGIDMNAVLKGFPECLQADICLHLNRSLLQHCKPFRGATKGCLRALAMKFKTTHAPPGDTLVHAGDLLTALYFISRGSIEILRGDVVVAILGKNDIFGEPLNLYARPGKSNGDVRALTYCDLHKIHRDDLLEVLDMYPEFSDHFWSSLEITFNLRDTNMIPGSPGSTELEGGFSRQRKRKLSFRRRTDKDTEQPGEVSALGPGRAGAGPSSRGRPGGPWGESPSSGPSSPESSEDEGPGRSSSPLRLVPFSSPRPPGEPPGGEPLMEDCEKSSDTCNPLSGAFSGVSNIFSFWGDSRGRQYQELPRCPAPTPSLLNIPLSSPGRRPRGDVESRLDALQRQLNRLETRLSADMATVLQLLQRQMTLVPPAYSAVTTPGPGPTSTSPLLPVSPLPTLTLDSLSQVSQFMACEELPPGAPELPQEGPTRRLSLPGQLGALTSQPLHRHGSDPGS

For `CCN(CC)C/C=C\c1cc(F)ccc1S(=O)(=O)Nc1ccc2c(c1C(=O)O)OC[C@@H]1C[C@H]21` (single isomer, unassigned) [Example 12], which solubility [1] is on record?
The solubility was ~100 µg/mL (≈ 211 µM).

What about the IC50 [2] of the same compound?
Its IC50 is 50000 nM.

What about the IC50 [3] of the same compound?
The IC50 was > 33 µM.

And the IC50 [4]?
Its IC50 is > 10 µM.

And the “HE-stained liver sections vs Vehicle group” value ([5]; 1 mg/kg (BID))?
Its value is “No obvious differences”.

What about the “Mean body weight at the day before sacrifice” value (from here on “Mean body weight”) ([5]; 1 mg/kg (BID) oral) of the same compound?
Its value is 19.2 ± 1.4 g.

What about the “Fibrosis area (Sirius red-positive area)” value ([5]; 1 mg/kg (BID)) of the same compound?
Its value is 1.12±0.46%.

What about the “Inflammation area (F4/80-positive area)” value ([5]; 1 mg/kg (BID)) of the same compound?
Its value is 3.67±0.91%.

And the “Fat deposition area (oil red-positive area)” value (“Fat deposition area” below) ([5]; 1 mg/kg (BID))?
The value was 18.47±5.22%.

What about the “Liver TG content” value ([5]; 1 mg/kg (BID)) of the same compound?
The value was 71.7±30.3 mg/g liver.

What about the “Hepatocellular ballooning and inflammatory cell infiltration vs Vehicle group” value ([5]; 3 mg/kg (BID)) of the same compound?
Its value is “decrease”.

What about the “Mean body weight” value ([5]; 3 mg/kg (BID) oral) of the same compound?
The value was 18.7 ± 1.4 g.

And the “Whole blood HbA1c levels” value ([5]; 3 mg/kg (BID))?
The value was “decreased”.

And the “Fibrosis area (Sirius red-positive area)” value ([5]; 3 mg/kg (BID))?
Its value is 0.89±0.32%.

And the “Inflammation area (F4/80-positive area)” value ([5]; 3 mg/kg (BID))?
The value was 3.47±0.65%.

What about the “NAFLD Activity score (NAS)” value ([5]; 3 mg/kg (BID)) of the same compound?
Its value is 3.6±1.6.

What about the “Fat deposition area” value ([5]; 3 mg/kg (BID)) of the same compound?
The value was 19.53±4.64%.

What about the “Liver TG content” value ([5]; 3 mg/kg (BID)) of the same compound?
Its value is 52.9±18.5 mg/g liver.

And the “Hepatocellular ballooning and inflammatory cell infiltration vs Vehicle group” value ([5]; 10 mg/kg (BID))?
The value was “decrease”.

And the “Mean body weight” value ([5]; 10 mg/kg (BID) oral)?
The value was 18.7 ± 1.0 g.

What about the “Whole blood HbA1c levels” value ([5]; 10 mg/kg (BID)) of the same compound?
The value was “decreased”.

What about the “Fibrosis area (Sirius red-positive area)” value ([5]; 10 mg/kg (BID)) of the same compound?
The value was 1.07±0.31%.

What about the “Inflammation area (F4/80-positive area)” value ([5]; 10 mg/kg (BID)) of the same compound?
The value was 3.82±0.57%.

And the “NAFLD Activity score (NAS)” value ([5]; 10 mg/kg (BID))?
The value was 3.4±1.5.

And the “Fat deposition area” value ([5]; 10 mg/kg (BID))?
The value was 23.31±9.18%.

And the “Liver TG content” value ([5]; 10 mg/kg (BID))?
Its value is 56.7±25.8 mg/g liver.

And the “HE-stained liver sections vs Vehicle group” value ([5]; 30 mg/kg (QD))?
Its value is “No obvious differences”.

What about the “Mean body weight” value ([5]; 30 mg/kg (QD) oral) of the same compound?
Its value is 17.9 ± 0.9 g.

What about the “Fibrosis area (Sirius red-positive area)” value ([5]; 30 mg/kg (QD)) of the same compound?
Its value is 0.99±0.43%.

And the “Inflammation area (F4/80-positive area)” value ([5]; 30 mg/kg (QD))?
The value was 3.90±0.78%.

And the “Fat deposition area” value ([5]; 30 mg/kg (QD))?
Its value is 22.30±9.59%.

And the “Liver TG content” value ([5]; 30 mg/kg (QD))?
Its value is 62.4±18.1 mg/g liver.

What about the “Plasma total cholesterol levels” value ([5]; BID dosing, dose dependent, FIG. 10) of the same compound?
The value was “decreased”.

And the NAS ([5]; QD dosing (30 mg/kg))?
Its NAS is “did not show evident improvement”.

And the “Plasma total cholesterol levels” value ([5]; QD dosing (30 mg/kg))?
The value was “significantly decreased”.

What about the “Whole blood HbA1c” value ([5]; QD dosing (30 mg/kg)) of the same compound?
Its value is “did not show evident improvement”.

And the fraction unbound [6]?
The fraction unbound was 0.189.

What about the AMES [7] of the same compound?
Its AMES is “negative”.

What about the fraction unbound [8] of the same compound?
The fraction unbound was > 0.3.

And the clearance ([9]; iv)?
Its clearance is 14 mL/min/kg.

And the half-life ([9]; iv, read-out: Plasma T1/2 (converted))?
Its half-life is 216 min.

And the Vd ([9]; iv, read-out: Vss)?
Its Vd is 1.3 L/kg.

What about the AUC ([9]; po) of the same compound?
Its AUC is 711 ng·h/mL.

What about the bioavailability ([9]; po) of the same compound?
Its bioavailability is 20%.

What about the Kp ([10]; liver/plasma, po, read-out: liver/plasma ratio) of the same compound?
The Kp was 38.

And the clearance ([10]; plasma, iv)?
Its clearance is 126 mL/min/kg.

And the half-life ([10]; plasma, iv, read-out: Plasma T1/2 (converted))?
Its half-life is 54 min.

What about the Vd ([10]; plasma, iv, read-out: Vss) of the same compound?
The Vd was 3.1 L/kg.

And the AUC ([10]; plasma, po)?
The AUC was 497 ng·h/mL.

And the bioavailability ([10]; plasma, po)?
The bioavailability was 53%.
